Test results taken from PubChem BioAssay (NCI).
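Assay format: 96-well plates, 48-hour exposure. Here, GI50 denotes the concentration required for 50% inhibition of growth. At the TGI there is no net growth.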

Tests used:
Assay in all cases: NCI tumour cell line growth inhibition, 48 h
SN12C renal = tested on: SN12C renal
HOP-62 NSCLC = tested on: HOP-62 NSCLC
U251 CNS = tested on: U251 CNS
MOLT-4 leukemia = tested on: MOLT-4 leukemia
IGROV1 ovarian = tested on: IGROV1 ovarian
RPMI-8226 leukemia = tested on: RPMI-8226 leukemia
HCC-2998 colon = tested on: HCC-2998 colon
RXF 393 renal = tested on: RXF 393 renal
UO-31 renal = tested on: UO-31 renal
SK-OV-3 ovarian = tested on: SK-OV-3 ovarian
NCI-H460 lung = tested on: NCI-H460 lung
SNB-19 CNS = tested on: SNB-19 CNS
EKVX NSCLC = tested on: EKVX NSCLC
A549 NSCLC = tested on: A549 NSCLC
CAKI-1 renal = tested on: CAKI-1 renal
HL-60(TB) leukemia = tested on: HL-60(TB) leukemia
MCF7 breast = tested on: MCF7 breast
MALME-3M melanoma = tested on: MALME-3M melanoma
OVCAR-8 ovarian = tested on: OVCAR-8 ovarian
UACC-257 melanoma = tested on: UACC-257 melanoma
NCI-H226 lung = tested on: NCI-H226 lung
NCI-H23 lung = tested on: NCI-H23 lung
SF-268 CNS = tested on: SF-268 CNS
CCRF-CEM leukemia = tested on: CCRF-CEM leukemia
HCT-116 colon = tested on: HCT-116 colon
SR leukemia = tested on: SR leukemia
PC-3 prostate = tested on: PC-3 prostate
A498 renal = tested on: A498 renal
COLO 205 colon = tested on: COLO 205 colon
NCI-H522 lung = tested on: NCI-H522 lung
NCI/ADR-RES ovarian = tested on: NCI/ADR-RES ovarian
SK-MEL-5 melanoma = tested on: SK-MEL-5 melanoma
HCT-15 colon = tested on: HCT-15 colon
SF-295 CNS = tested on: SF-295 CNS
K-562 leukemia = tested on: K-562 leukemia
MDA-MB-231 breast = tested on: MDA-MB-231 breast
LOX IMVI melanoma = tested on: LOX IMVI melanoma
TK-10 renal = tested on: TK-10 renal
MDA-MB-435 = tested on: MDA-MB-435
SK-MEL-2 melanoma = tested on: SK-MEL-2 melanoma
KM12 colon = tested on: KM12 colon
HT29 colon = tested on: HT29 colon
SF-539 CNS = tested on: SF-539 CNS
M14 melanoma = tested on: M14 melanoma
DU-145 prostate = tested on: DU-145 prostate
UACC-62 melanoma = tested on: UACC-62 melanoma
OVCAR-3 ovarian = tested on: OVCAR-3 ovarian
HS 578T breast = tested on: HS 578T breast
OVCAR-5 ovarian = tested on: OVCAR-5 ovarian
HOP-92 NSCLC = tested on: HOP-92 NSCLC
SK-MEL-28 melanoma = tested on: SK-MEL-28 melanoma
BT-549 breast = tested on: BT-549 breast
SW-620 colon = tested on: SW-620 colon
MDA-MB-468 breast = tested on: MDA-MB-468 breast
T-47D breast = tested on: T-47D breast

Compound: N/C(=N\c1nc2ccc([N+](=O)[O-])cc2s1)NC(=O)Nc1ccccc1Cl
- GI50 (SN12C renal): 4.2 µM
- TGI (SN12C renal): > 100 µM
- GI50 (HOP-62 NSCLC): 10.8 µM
- TGI (HOP-62 NSCLC): 94.4 µM
- GI50 (U251 CNS): 2300 nM
- TGI (U251 CNS): 6.18 µM
- GI50 (MOLT-4 leukemia): 40 µM
- TGI (MOLT-4 leukemia): > 100 µM
- GI50 (IGROV1 ovarian): 9.77 µM
- TGI (IGROV1 ovarian): > 100 µM
- GI50 (RPMI-8226 leukemia): 72.2 µM
- TGI (RPMI-8226 leukemia): > 100 µM
- GI50 (HCC-2998 colon): 61.4 µM
- TGI (HCC-2998 colon): > 100 µM
- GI50 (RXF 393 renal): 3.79 µM
- TGI (RXF 393 renal): > 100 µM
- GI50 (UO-31 renal): 3.19 µM
- TGI (UO-31 renal): > 100 µM
- GI50 (SK-OV-3 ovarian): 6.63 µM
- TGI (SK-OV-3 ovarian): 28.2 µM
- GI50 (NCI-H460 lung): 3.1 µM
- TGI (NCI-H460 lung): 8.71 µM
- GI50 (SNB-19 CNS): 10.2 µM
- TGI (SNB-19 CNS): > 100 µM
- GI50 (EKVX NSCLC): 12.4 µM
- TGI (EKVX NSCLC): > 100 µM
- GI50 (A549 NSCLC): 3.09 µM
- TGI (A549 NSCLC): > 100 µM
- GI50 (CAKI-1 renal): 3.58 µM
- TGI (CAKI-1 renal): > 100 µM
- GI50 (HL-60(TB) leukemia): 22.4 µM
- TGI (HL-60(TB) leukemia): > 100 µM
- GI50 (MCF7 breast): 7.69 µM
- TGI (MCF7 breast): > 100 µM
- GI50 (MALME-3M melanoma): 4.56 µM
- TGI (MALME-3M melanoma): > 100 µM
- GI50 (OVCAR-8 ovarian): 3.9 µM
- TGI (OVCAR-8 ovarian): > 100 µM
- GI50 (UACC-257 melanoma): 45.5 µM
- TGI (UACC-257 melanoma): > 100 µM
- GI50 (NCI-H226 lung): 5 µM
- TGI (NCI-H226 lung): > 100 µM
- GI50 (NCI-H23 lung): 4.55 µM
- TGI (NCI-H23 lung): > 100 µM
- GI50 (SF-268 CNS): 15.1 µM
- TGI (SF-268 CNS): > 100 µM
- GI50 (CCRF-CEM leukemia): 46.9 µM
- TGI (CCRF-CEM leukemia): > 100 µM
- GI50 (HCT-116 colon): 1690 nM
- TGI (HCT-116 colon): 3.46 µM
- GI50 (SR leukemia): 2170 nM
- TGI (SR leukemia): > 100 µM
- GI50 (PC-3 prostate): 28.9 µM
- TGI (PC-3 prostate): > 100 µM
- GI50 (A498 renal): 4.53 µM
- TGI (A498 renal): 38 µM
- GI50 (COLO 205 colon): 6.91 µM
- TGI (COLO 205 colon): 76.2 µM
- GI50 (NCI-H522 lung): 3.46 µM
- TGI (NCI-H522 lung): 41.5 µM
- GI50 (NCI/ADR-RES ovarian): 3.97 µM
- TGI (NCI/ADR-RES ovarian): > 100 µM
- GI50 (SK-MEL-5 melanoma): 11.4 µM
- TGI (SK-MEL-5 melanoma): 38.6 µM
- GI50 (HCT-15 colon): 6.92 µM
- TGI (HCT-15 colon): > 100 µM
- GI50 (SF-295 CNS): 17.6 µM
- TGI (SF-295 CNS): 90.9 µM
- GI50 (K-562 leukemia): 3.56 µM
- TGI (K-562 leukemia): > 100 µM
- GI50 (MDA-MB-231 breast): 2450 nM
- TGI (MDA-MB-231 breast): 6.88 µM
- GI50 (LOX IMVI melanoma): 9.3 µM
- TGI (LOX IMVI melanoma): > 100 µM
- GI50 (TK-10 renal): 3.6 µM
- TGI (TK-10 renal): > 100 µM
- GI50 (MDA-MB-435): 2260 nM
- TGI (MDA-MB-435): 7.77 µM
- GI50 (SK-MEL-2 melanoma): 23 µM
- TGI (SK-MEL-2 melanoma): 50.2 µM
- GI50 (KM12 colon): 6.95 µM
- TGI (KM12 colon): > 100 µM
- GI50 (HT29 colon): 13.9 µM
- TGI (HT29 colon): > 100 µM
- GI50 (SF-539 CNS): 4.55 µM
- TGI (SF-539 CNS): 28.2 µM
- GI50 (M14 melanoma): 13.1 µM
- TGI (M14 melanoma): 38.5 µM
- GI50 (DU-145 prostate): 5.63 µM
- TGI (DU-145 prostate): > 100 µM
- GI50 (UACC-62 melanoma): 14.9 µM
- TGI (UACC-62 melanoma): 66.6 µM
- GI50 (OVCAR-3 ovarian): 2410 nM
- TGI (OVCAR-3 ovarian): 6.16 µM
- GI50 (HS 578T breast): 12.1 µM
- TGI (HS 578T breast): > 100 µM
- GI50 (OVCAR-5 ovarian): 4.12 µM
- TGI (OVCAR-5 ovarian): > 100 µM
- GI50 (HOP-92 NSCLC): 2970 nM
- TGI (HOP-92 NSCLC): 17.5 µM
- GI50 (SK-MEL-28 melanoma): 26.2 µM
- TGI (SK-MEL-28 melanoma): > 100 µM
- GI50 (BT-549 breast): 4.07 µM
- TGI (BT-549 breast): > 100 µM
- GI50 (SW-620 colon): 5.11 µM
- TGI (SW-620 colon): > 100 µM
- GI50 (MDA-MB-468 breast): 3.16 µM
- TGI (MDA-MB-468 breast): 13.1 µM
- GI50 (T-47D breast): 2710 nM
- TGI (T-47D breast): > 100 µM
